Measurements from patent US20160209435A1, “Acetaminophen as a Marker of Hepatic Disorders” (THE ARIZONA BOARD OF REGENTS, on behalf of THE UNIVERSITY …, priority 2008, published 2016).
Where two headings read alike, the source gives them in different places. Blank lines part the entries; values can stand above or below the compound they belong to.

What was measured:
[1] = cited from earlier work
[2] = APAP-GLUC concentration in plasma of pediatric patients after APAP administration (HPLC); format: in vivo, human; settings: for concentration at 1 h / concentration at 2 h / concentration at 4 h / concentration at 3 h: human, plasma; for concentration at 1 h: 1 h after APAP; for concentration at 2 h: 2 h after APAP; for concentration at 4 h: 4 h after APAP; for concentration at 3 h: 3 h after APAP
Procedure: (§1) A study was conducted in pediatric patients whose disease status had been biopsy verified. Twenty-four pediatric patients (12-18 yrs) were desirable for the preliminary study due to the presumed lack of confounding factors (e.g., alcoholic consumption, illicit drug use) and the increasing prevalence of childhood obesity. Conversely, pediatric patients are limited in the amount of real liver damage that can take place simply due to age, where pediatric patients are incapable of developing ballooning degeneration and are limited to fat deposition, inflammation, and fibrosis.
High Performance Liquid Chromatography Analysis. APAP and its metabolites in plasma, and urine samples were quantified by high performance liquid chromatography analysis based on previously described methods (Howie et al., 1977a; Chen et al., 2000; Slitt et al., 2003d). APAP and its metabolites were resolved using a Zorbmax™ SB-C18 reverse-phase 4.6-mm×25-cm column with a Phenomenex™ Security Guard Column Guard and eluted using a mobile phase composed of 12.5% HPLC-grade methanol, 1% acetic acid, and 86.5% water, run isocratically at a flow rate of 1.2 mL/minute. The elution of metabolites was monitored at a wavelength of 254 nm. Retention times of APAP and its metabolites were determined by comparison with that of authentic standards. […] Samples were analyzed using a Beckman System Gold HPLC system (Beckman Coulter, Inc., Fullerton, Calif.) equipped with a 128-nm solvent module and a 166-nm detector. Quantitation was based on integrated peak areas. The concentrations of APAP and its metabolites were calculated using an APAP standard curve since the molar extinction coefficients of APAP and its conjugated metabolites are approximately the same (Howie et al., 1977b). To precipitate proteins in plasma, and urine, samples were diluted 1:2, 1:2, and 1:3, respectively, with ice-cold methanol and centrifuged at 4,000×g for 30 minutes at 4° C. The resulting supernatants were collected and diluted in mobile phase 1:3 (urine) or 1:2 (plasma) prior to HPLC analysis.
Liver fibrosis was histologically characterized as mild (minimal scarring around blood vessels), moderate (scarring extending out from the liver blood vessels), or severe (scarring forming bridges between blood vessels).
Liver inflammation was histologically characterized as mild (less than 2 foci of inflammation), moderate (2-4 foci of inflammation), or severe (more than 4 foci of inflammation).

[3] = MCD rats, APAP 1 mmol/kg; cited from earlier work
[4] = APAP-GLUC concentration in urine after APAP administration (HPLC); format: in vivo, human; settings: normal volunteers, steatosis, steatohepatitis
Procedure: as §1
High Performance Liquid Chromatography Analysis. APAP and its metabolites in plasma, and urine samples were quantified by high performance liquid chromatography analysis based on previously described methods (Howie et al., 1977a; Chen et al., 2000; Slitt et al., 2003d). […] The elution of metabolites was monitored at a wavelength of 254 nm. Retention times of APAP and its metabolites were determined by comparison with that of authentic standards. […] Samples were analyzed using a Beckman System Gold HPLC system (Beckman Coulter, Inc., Fullerton, Calif.) equipped with a 128-nm solvent module and a 166-nm detector. Quantitation was based on integrated peak areas. […]

[5] = NASH, read-out: Mean plasma concentration
[6] = NASH, read-out: Median plasma concentration
[7] = Normal, read-out: Mean plasma concentration
[8] = Normal, read-out: Median plasma concentration
[9] = Steatosis, read-out: Mean plasma concentration
[10] = Steatosis, read-out: Median plasma concentration

Structure (SMILES): CC(=O)Nc1ccc(O)cc1 [Acetaminophen]
plasma half-life ([1]; first-order elimination): 2.0 to 2.4 h
fraction of administered dose conjugated with glucuronic acid ([1]; in vivo): At least one-half
fraction of administered dose conjugated with sulfate ([1]; in vivo): one-third
fraction metabolized by CYP-450-dependent mixed-function oxidase pathway ([1]; primarily via CYP2E1): 5-9%
dose excreted unchanged by the kidneys ([1]; recommended dose): Less than 5%

Plasma concentration, steatohepatitis versus simple steatosis ([2]; all time points measured): significantly higher
concentration at 1 h [2, 5]: 60.7 µM
concentration at 1 h [2, 6]: 75.9 µM
concentration at 2 h [2, 5]: 72.7 µM
concentration at 2 h [2, 6]: 66.4 µM
concentration at 4 h [2, 5]: 68.3 µM
concentration at 4 h [2, 6]: 62.6 µM
concentration at 1 h [2, 7]: 29.9 µM
concentration at 1 h [2, 8]: 29 µM
concentration at 2 h [2, 7]: 54.3 µM
concentration at 2 h [2, 8]: 48.9 µM
concentration at 3 h [2, 7]: 46.7 µM
concentration at 3 h [2, 8]: 39.2 µM
concentration at 1 h [2, 9]: 30.5 µM
concentration at 1 h [2, 10]: 32.6 µM
concentration at 2 h [2, 9]: 44.3 µM
concentration at 2 h [2, 10]: 41.1 µM
concentration at 4 h [2, 9]: 35.5 µM
concentration at 4 h [2, 10]: 35.3 µM
Plasma levels, hepatic fibrosis versus no hepatic fibrosis ([2]; pediatric patients): Higher
Plasma levels, hepatic inflammation versus no hepatic inflammation ([2]; pediatric patients): Higher
Structure (SMILES): CC(=O)Nc1ccc(O[C@@H]2O[C@H](C(=O)O)[C@@H](O)[C@H](O)[C@H]2O)cc1 [APAP-GLUC, acetaminophen (APAP)-glucuronide]
route of excretion relative to control [3]: shift from biliary to plasma excretion
Urine levels, NASH versus other groups [4]: not significantly different between patients with NASH and other groups until four hours
